Entries after “also recorded” stand apart in the source; their conditions may differ.
Tests used:
[1] = test system: AKT; assay: Retinoic acid-induced AKT activation by immunoblotting; format: cell-based; settings: 50 μM each, Caco-2 and MEF cells
Method: MEF and Caco-2 cells were starved overnight and pretreated with Sulindac for 30 min before exposure to all-trans-retinoic acid (ATRA) (10^−7 M) for 30 min and analyzed for AKT activation (FIG. 12B).
Caco-2 and MEF cells were treated with the indicated concentration of Sulindac or K-80003 for 30 min, then stimulated with all-trans-RA (10^−7 M) for 15 min. AKT activation was analyzed by immunoblotting.
For immunoblotting, cell lysates were boiled in SDS sample buffer, resolved by SDS-polyacrylamide gel electrophoresis, and transferred to nitrocellulose. After transfer, the membranes were blocked in 5% milk in TBST (10 mM Tris-HCl, pH. 8.0, 150 mM NaCl, 0.05% Tween 20) containing antibody. The membranes were then washed three times with TBST, then incubated for 1 hr at room temperature in 5% milk in TBST containing horseradish peroxide-linked anti-immunoglobulin.

[2] = test system: prostaglandin E2 (PGE2) production; assay: PGE2 production in A549 cells; format: cell-based, human
Method: A549 cells were seeded in 24-well plates in DMEM with 10% fetal bovine serum. After overnight culture, cells were stimulated with 10 ng/ml IL-1β in DMEM medium without serum for 24 hr. After 10 min pretreatment with the indicated concentrations of Sulindac or analog, cells were co-treated with 10 μM arachidonic acid and Sulindac or its analog for 30 min at 37° C. Medium was collected and immediately assayed. PGE2 production was measured with Prostaglandin E2 EIA Kit-Monoclonal according to the manufacturer's instructions (Cayman Chemical, Ann Arbor, Mich.). PGE2 production (%) is expressed as the ratio of PGE2 produced in the presence of compound to that with vehicle alone.

[3] = test system: RXRα/Δ80 tumor; assay: RXRα/Δ80 tumor growth in animals; format: in vivo; settings: mice, 60 mg/kg intraperitoneally, two weeks
Method: Mice (n=6) were treated intraperitoneally with corn oil, Sulindac (60 mg/kg), or K-80003 (60 mg/kg) for two weeks. Tumors were removed and measured. […] Together, the RXRα-selective Sulindac analog K-80003 is a potent inhibitor of RXRα-mediated PI3K/AKT signaling and cancer cell growth.

[4] = test system: MCF-7 breast tumor; assay: MCF-7 breast tumor growth, oral administration; format: in vivo; settings: mice, 15, 30, 60 mg/kg by gavage once daily, 20 days
Method: The growth inhibitory effect of oral administration of K-80003 on MCF-7 breast tumor tissue grown in mice was investigated. K-80003 was dissolved in NaHCO3 (pH 8.0). Mice with MCF-7 breast tumor tissue were administered 15 mg/kg K-80003, 30 mg/kg K-80003, 60 mg/kg K-80003, or a control in 100 ul total volume by gavage once daily.

[5] = Preclinical toxicity study; format: in vivo
Method: Preclinical studies of K-80003 were performed, including the investigation of toxicity, bioavailability, and pharmacokinetics.

[6] = molecular target: T1, RXRα/PPARγ heterodimer (Homo sapiens, UniProt P19793); assay: DR1 tk-CAT reporter assay in CV-1 cells; format: cell-based; settings: ciglitazone 10^−6 M
T1 construct: expressed in transfected cells; host or cells: CV-1 green monkey kidney cells
Method: Receptor expression vectors and a reporter gene (TREpal2-tk-CAT for RXRα/TRα heterodimers (FIG. 9C), and DR1 tk-CAT for RXRα/PPARγ heterodimer (FIG. 9B)) were transiently transfected into CV-1 cells. Cells were treated with or without ligands (ciglitazone, 10^−6 M; T3, 10^−7 M) in the presence or absence of Sulindac. CAT activity was determined.
Cells (1×10^5 cells/well) seeded in 24-well plates were transiently transfected using a modified calcium phosphate precipitation procedure as described (Kolluri, S. K. et al., Proc Natl Acad Sci USA 102 (7), 2525-2530 (2005); Cao, X., et al., Mol Cell Biol 24(22), 9705-9725 (2004)).

[7] = test system: interaction of p85α with tRXRα and/or RXRα; assay: Co-immunoprecipitation with ΔN197 anti-RXRα antibody; format: cell-based; settings: TNFα-enhanced
Method: RXRα interaction with p85α was examined. Anti-RXRα […]antibodies (Santa Cruz Biotechnology, Santa Cruz, Calif.) were used in co-immunoprecipitation (Co-IP) and Western blotting (WB) assays. BHK cells were treated with ATRA (10^−7 M) for 30 min. Lysates were prepared and analyzed for RXRα-p85α interaction using either D20 anti-RXRα or ΔN197 anti-RXRα antibody (FIG. 12D).
For the CoIP assay, cells or cells transfected with indicated expression vectors were suspended in lysis buffer (50 mM Tris-HCl, pH 7.4; 150 mM NaCl; 20 mM EDTA; 1% NP-40; 1 mM PMSF; […] Leupeptin; […] Aprotinin; 0.1 mM Na3VO4; and 1 mM DTT). Cell extracts were cleared by incubation with the Protein A/G plus Agarose beads (Santa Cruz Biotechnology, Santa Cruz, Calif.) and then incubated with appropriate antibody and […] of Protein A or G plus Agarose beads overnight at 4° C. Beads were then washed and boiled in Laemmli gel-loading solution before performing SDS-PAGE/immunoblotting using polyclonal or monoclonal antibodies. Immunoreactive products were detected by chemiluminescence with an enhanced chemiluminescence system (ECL™) (Amersham Biosciences, Amersham, UK).

[8] = test system: c-FLIP; assay: c-FLIP expression by immunoblotting; format: cell-based; settings: HepG2, A549 and SW480 cells, 6 hr
Method: Cells treated with TNFα and/or Sulindac for 6 hr were analyzed by immunoblotting (FIG. 6I). The expression of c-FLIP, a downstream target gene of AKT signaling, which acts as a potent inhibitor of the extrinsic apoptotic pathway by inhibiting caspase-8 activation, was examined. […] Thus, Sulindac may induce apoptosis by suppressing the inducing effect of TNFα on c-FLIP expression.

T1 sequence (P19793 whole entry): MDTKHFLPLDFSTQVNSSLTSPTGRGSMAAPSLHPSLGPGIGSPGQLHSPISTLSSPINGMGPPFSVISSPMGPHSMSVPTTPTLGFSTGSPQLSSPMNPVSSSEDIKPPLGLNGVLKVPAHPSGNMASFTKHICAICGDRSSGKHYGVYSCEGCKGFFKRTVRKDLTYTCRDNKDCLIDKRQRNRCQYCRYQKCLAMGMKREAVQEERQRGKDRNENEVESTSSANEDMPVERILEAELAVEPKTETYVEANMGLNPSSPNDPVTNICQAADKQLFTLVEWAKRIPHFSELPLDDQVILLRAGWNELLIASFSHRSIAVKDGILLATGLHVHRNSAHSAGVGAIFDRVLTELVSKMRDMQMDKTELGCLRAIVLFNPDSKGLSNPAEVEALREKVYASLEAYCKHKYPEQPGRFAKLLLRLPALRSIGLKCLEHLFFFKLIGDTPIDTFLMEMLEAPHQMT
T1 sequence (P37231 whole entry partner): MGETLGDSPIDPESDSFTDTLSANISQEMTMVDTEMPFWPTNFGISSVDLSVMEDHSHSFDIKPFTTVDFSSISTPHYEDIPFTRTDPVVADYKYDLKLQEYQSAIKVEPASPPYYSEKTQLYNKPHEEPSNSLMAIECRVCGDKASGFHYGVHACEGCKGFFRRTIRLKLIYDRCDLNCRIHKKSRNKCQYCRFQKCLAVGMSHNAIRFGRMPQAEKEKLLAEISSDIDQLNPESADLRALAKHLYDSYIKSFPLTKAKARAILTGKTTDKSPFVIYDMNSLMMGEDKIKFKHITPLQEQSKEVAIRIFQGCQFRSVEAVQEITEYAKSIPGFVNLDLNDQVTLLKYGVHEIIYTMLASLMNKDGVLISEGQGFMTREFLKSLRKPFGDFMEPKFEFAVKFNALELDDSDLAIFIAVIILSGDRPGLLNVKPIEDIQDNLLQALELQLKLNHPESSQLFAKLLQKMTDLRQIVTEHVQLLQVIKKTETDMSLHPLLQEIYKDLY

| SMILES | inhibition of ATRA-induced AKT activation, compared with Sulindac [1] | inhibition of constitutive and TNFα- or IL-1β-induced PGE2 production [2] | inhibition of RXRα/Δ80 tumor growth, compared with Sulindac [3] | tumor volume compared to control [4] | toxicity [5] | transactivation of RXRα/PPARγ heterodimers (CAT activity) [6] | interaction of p85α with tRXRα and/or RXRα [7] | TNFα induction of c-FLIP (c-FLIPS and c-FLIPL) [8] |
| --- | --- | --- | --- | --- | --- | --- | --- | --- |
| CC1=C(CC(=O)O)c2cc(F)ccc2/C1=C\c1ccc(C(C)C)cc1 [K-80003, (Z)-2-(3-(4-Iso-propylbenzylidene)-6-fluoro-2-methyl-3H-inden-1-yl)acetic acid] | much more effective than Sulindac | failed to inhibit; also recorded: did not inhibit | much more potent inhibitory effect than Sulindac | dose-dependent decrease in tumor volume | very low toxicity | – | – | – |
| CSc1ccc(/C=C2/C(C)=C(CC(=O)O)c3cc(F)ccc32)cc1 [Sulindac, (Z)-2-(3-(4-(Methylthio)benzylidene)-6-fluoro-2-methyl-3H-inden-1-yl)acetic acid] | – | – | – | – | – | inhibited transactivation | inhibited | inhibited |
